According to PubChem BioAssay AID2305 (GlaxoSmithKline (GSK), 2010):
Where “and” joins values, the source holds several entries; their conditions need not be identical. Equal values may be shown once.

These molecules were tested on P. falciparum 3D7 growth, pLDH absorbance (assay: P. falciparum 3D7 growth inhibition, dose response, strain 3D7 (AID 2305)).

In order of rising IC50:
1. COc1ccc2nccc(NN=Cc3ccccc3[N+](=O)[O-])c2c1  0.07 µM
2. COc1ccc2c(NN=Cc3ccccc3)ccnc2c1  0.13 µM
3. CCOC(=O)c1ccc(NC(=O)Nc2ccc(-c3cccc(-c4nc5c(C)cccc5[nH]4)c3)cc2)cc1  0.14 µM
4. c1csc(-c2nc(N3CCCCC3)ncc2-c2ccsc2)n1  0.14 µM
5. COc1cc2nc(N3CCN(c4nc(N)c5cc(OC)c(OC)cc5n4)CC3)nc(N)c2cc1OC  0.15 µM
6. COc1ccc2nccc(N3CCCN(CCNCc4ccc5c(n4)NC(=O)CS5)CC3)c2n1  0.15 µM
7. Cc1ccc(CN=C(N)NC(=O)c2nc(Cl)c(NCc3ccc(Cl)cc3)nc2N)c(C)c1  0.17 µM
8. O=C(NCc1ccc(F)cc1)Nc1cccc(-c2ccc(-c3nc4ccccc4[nH]3)cc2)c1  0.17 µM
9. CCCCCCCN1CC[C@H](NC(=O)Nc2ccnc3ccc(OC)cc23)[C@H](CO)C1  0.18 µM
10. CN(C)CCCn1c(C(=O)OC(c2ccccc2)c2ccccc2)cc2cc(OCc3ccccc3)ccc21  0.2 µM
11. CCc1ccc(Cc2cnc3nc(N)nc(N)c3c2C)cc1  0.2 µM
12. COc1ccc2nc(-c3ccccc3)cc(NN=Cc3ccc([N+](=O)[O-])o3)c2c1  0.2 µM
13. Clc1cccc(Cl)c1CCNCC1CCN(CC2CCCCC2)CC1  0.21 µM
14. CC(=O)Nc1cc(C(=O)Nc2cccc(-c3cccc(-c4nc5ccc(C(F)(F)F)cc5[nH]4)c3)c2)ccc1C  0.22 µM
15. CCCCCCC(C)(C)c1cc(O)c2c3c(c(=O)oc2c1)CCN(Cc1ccccc1)C3  0.22 µM
16. O=C(c1ccc(Cl)cc1)N1CCOC(CCN2CCC(c3ccccc3)CC2)(c2ccc(Cl)c(Cl)c2)C1 (stereo unspecified)  0.24 µM
17. Oc1ccc2nc(NCCCc3ccccc3)nc(NCCc3ccccc3)c2c1  0.29 µM
18. COc1ccccc1CCN1CCC(CN(C)Cc2ccc(O)c(Cl)c2)CC1  0.33 µM
19. CCC(=O)OC(CCN(CC)CC)(c1ccccc1)c1ccccc1  0.37 µM
20. COc1ccc2c(NN=Cc3ccccn3)ccnc2c1  0.37 µM
21. COc1ccc2ncc(F)c(CCN3CCC(CNC(=O)C(=O)c4c[nH]c5ccccc45)CC3)c2n1  0.39 µM
22. Cc1cccc2[nH]c(-c3ccc(-c4cccc(CNCc5cccc(N)c5)c4)cc3)nc12  0.39 µM
23. Cc1[nH]c(C)c(-c2cccc(-c3ccc(OC(F)(F)F)cc3)c2)c(=O)c1Br  0.41 µM
24. Cc1cc(NC(=O)c2ccco2)ccc1OC1CCN(Cc2ccc(C#N)cc2)CC1  0.5 µM
25. NC(N)=NC(=O)Nc1cc(F)c(Cl)c(Cl)c1  0.5 µM
26. COc1cc(NC(=O)c2sc(-c3ccc(Cl)cc3)cc2NC(=O)N2CCCC2)ccc1OCCN1CCCC1  0.57 µM
27. O=c1cc(NCCCNCc2scc(I)c2I)[nH]c2ccccc12  0.59 µM
28. O=C(NC1CC1)c1ccc(N2CCC(Cc3ccccc3)CC2)c([N+](=O)[O-])c1  0.61 µM
29. OCCN1CCN(Cc2ccc(-c3ccc(-c4nc5ccccc5[nH]4)cc3)cc2)CC1  0.62 µM
30. Cc1c(C(=O)N(C)C)sc2c1c(=O)n(Cc1ccccc1)c(=O)n2CC(=O)Nc1ccccc1F  0.66 µM
31. Cc1cccc2[nH]c(-c3ccc(-c4ccc(CNC(C)C)cc4)cc3)nc12  0.68 µM
32. Cc1ccc(-c2nnc(Nc3ccc(C(=O)N4CCCCC4)cc3)c3ccccc23)cc1S(=O)(=O)NCC1CCCO1 (stereo unspecified)  0.71 µM
33. Cc1ccc2[nH]c(-c3ccc(C(=O)NC4CCN(Cc5ccccc5)CC4)cc3)nc2c1C  0.73 µM
34. NC(=O)c1sc(-n2cnc3ccc(OCC4CCNCC4)cc32)cc1OCc1ccccc1C(F)(F)F  0.75 µM
35. COc1ccc2nccc([C@@H](O)CN3CCC(NCc4ccc5c(c4)N(C)C(=O)CO5)CC3)c2c1  0.75 µM
36. COc1ccc(C(=O)Nc2cc(Cl)c3c(c2)C2CCCN2CC3)cc1C(F)(F)F (stereo unspecified)  0.75 µM
37. O=C(NCC1CCC(C(=O)NCc2cccc3ccccc23)CC1)c1ccc(O)c(-c2ccc(Cl)c(Cl)c2)c1 (stereo unspecified)  0.75 µM
38. O=C(NCCN1CCCC1)c1ccc(-c2cccc(-c3nc4ccc(F)cc4[nH]3)c2)cc1  0.77 µM
39. CCn1c(-c2ccccc2)cc2nnc3ccccc3c21  0.77 µM
40. COc1cccc(C(=O)Nc2ccc(-c3nc4ccccc4[nH]3)cc2)c1  0.8 µM
41. O=C(Nc1ccc(Cl)cc1)Nc1ccc(-c2csc(-c3nc4ccccc4[nH]3)c2)cc1  0.8 µM
42. CCOc1ccc(C2CCN(CCN3CCC(NC(=O)c4ccc(-c5ccc(C(F)(F)F)cc5)cc4)CC3)CC2)c(OCC2CC2)c1  0.83 µM
43. CN(C)C(CNC(=O)c1cc(-c2ccncc2)c(-c2cc3ccccc3[nH]2)o1)c1ccccc1 (stereo unspecified)  0.84 µM
44. Cc1cccc2[nH]c(-c3ccc(-c4cccc(NC(=O)CCc5cnc[nH]5)c4)s3)nc12  0.84 µM
45. COc1cc(C(=O)N2CC[C@@H](CCN3CCC4(CC3)CN(S(C)(=O)=O)c3ccccc34)C[C@H]2Cc2ccc(Cl)c(Cl)c2)cc(OC)c1OC  0.84 µM
46. COc1ccc(Cn2c(N3CCN(S(=O)(=O)c4ccc(OC)cc4)CC3)nc3c2c(=O)n(CC2CC2)c(=O)n3CC2CC2)cc1  0.89 µM
47. Fc1ccccc1C=NNc1ccnc2ccccc12  0.89 µM
48. COc1ccc(CN(C)CCOc2ccc(NC(=O)c3cccc4c(=O)cc(-c5ccccc5)[nH]c34)cc2)cc1OC  0.92 µM
49. CNC(=O)COc1ccc(Nc2nnc(-c3ccc(C)c(S(=O)(=O)NCC4CCCO4)c3)c3ccccc23)cc1 (stereo unspecified)  0.93 µM
50. Cc1nc(-c2cccc(C(=O)N(Cc3cncn3Cc3cccc(C(F)(F)F)c3)CC3CC3)c2)cs1  0.94 µM
51. CN(C)CCN(C)Cc1ccc(-c2ccc(NC(=O)c3ccc(Cl)cc3)cc2)cc1  0.94 µM
52. Cc1cc(C)c2c(c1)C(=NO)CCN2  0.94 µM
53. Cc1ccc(NC(=O)c2cnc(N3CCN(c4ccncc4)CC3)c(Cl)c2)cc1  0.96 µM
54. O=C(/C=C/c1c(Cl)cccc1Cl)NC1CCC(CN2CCC(Cc3cc4ccccc4[nH]3)CC2)CC1 (stereo unspecified)  0.97 µM
55. CCCc1cc(Cc2cnc(N)nc2N)cc(OC)c1OC  0.99 µM
56. COc1ccc2nc(N3CCNCC3)nc(NCCCc3ccccc3)c2c1  1 µM
57. CO/C(=C\C=C\c1cc2cc(Cl)c(Cl)cc2[nH]1)C(=O)NC1C[C@H]2CCC[C@@H](C1)N2C (stereo partly specified)  1 µM
58. CCC(O)c1ccc(Br)cc1NC(=O)c1cccc(Cl)c1 (stereo unspecified)  1.02 µM
59. COCCCn1c(=N)c(C(=O)NCCc2ccc(OC)cc2)cc2c(=O)n3cccc(C)c3nc21  1.03 µM
60. Cc1cccc2[nH]c(-c3cccc(-c4ccc(NC(=O)CN5CCOCC5)cc4)c3)nc12  1.05 µM
61. CCOc1ccc(Br)cc1/C=C/C(=O)Nc1ccc2c(c1)CCCN(C)C2  1.05 µM
62. COc1cc2nc(SCCCC#N)n(C3CCCCCC3)c(=N)c2cc1OC  1.14 µM
63. COc1c(F)cc(CC(C)NCC(O)c2cccc(Cl)c2)cc1F (stereo unspecified)  1.16 µM
64. O=C(Nc1cccc(C(F)(F)F)c1)c1ccc(S(=O)(=O)NC2CCN(CC3CCCCC3)CC2)cc1  1.16 µM
65. Cc1nc(NCc2ccccc2)cc(NCC(O)c2ccc(O)cc2)n1 (stereo unspecified)  1.23 µM
66. Cn1cccc1C(=O)Nc1cccc(-c2nn3ccccc3c2-c2ccnc(Nc3ccc4c(c3)OCCO4)n2)c1  1.35 µM
67. Cc1nnc2c(NC(=O)NC3CCCC3)cc3cc(-c4ccc(CN(C)C)cc4)ccc3n12  1.47 µM
68. CCC(C)CC(=O)Nc1ccc(OC)c(S(=O)(=O)N[C@@H]2CCN(C#N)C2)c1 (stereo partly specified)  1.49 µM
69. O=C(C=Cc1cccs1)N(CCCn1ccnc1)c1nc2ccc(F)cc2s1  1.6 µM

With `O=C(/C=C/c1cccc(F)c1)NC1CCC(CN2CCC(c3c[nH]c4ccccc34)CC2)CC1` (stereo unspecified) the IC50 was 0.87 µM and 0.71 µM.
In the case of `O=C(Nc1ccc(Cn2ncc(N3CCCNCC3)c(Cl)c2=O)cc1)Nc1ccc(-c2ccccc2)cc1`, the IC50 is reported as 0.82 µM and 0.8 µM.
